This is an account of results in US10947215B2, “Heteroaryl compounds and their use as therapeutic drugs” (Dong-A Socio Holdings Co., Ltd., priority 2015, dated 2021).

Some results are limits rather than exact numbers.

Usually GI50 stands for the concentration at which growth is held to half of that of the control.

This assay has as its system Ba/F3-CDM cells (Ba/F3 transfected with CD8-MerTK). The assay is described as follows: In cell MER kinase assay, Ba/F3-CDM cell proliferation without IL-3 (Celltiter-Glo, GI50). The class given is cell-based, murine. As to conditions: 48 hours, read-out: Cell growth inhibition (GI50). How it is done: In Cell MER Kinase Assay Using BaF3 Cellular System
To establish an in cell kinase assay for MerTK kinase, the IL-3 dependent Ba/F3 cells of murine lymphoid origin was transfected with CD8-MerTK. […] For a routine cellular assay, Ba/F3-CDM cells were seeded at 2,000 cells per well in 384-well cell culture plate containing DMEM/10% FBS culture media and incubated for 24 hours before addition of compounds pre-diluted in culture media. Following compound treatment, cells were further incubated for 48 hours and the proliferation was measured. To discriminate a Ba/F3 growth inhibition by a specific inhibition of MerTK kinase following compound treatment vs growth inhibition due to a non-specific unintended cytotoxicity of compounds, we routinely carried out control sets of Ba/F3 cells in parallel that grown in IL3-supplemented growth media. In the presence of IL-3, the proliferation of Ba/F3 is no longer dependent on the MerTK activity. Cell growth and proliferation was measured with Celltiter-Glo™ system (Promega, USA) according to the manufacturer's instruction. The half-maximal growth inhibitory concentration (GI50) value was calculated with Prism6.0 software (GraphPad, USA).

For `CN1CCC(n2cc(-c3cnc(N)c(C(=O)N[C@H]4CCC[C@@H]4OCc4ccc(-c5ccc(CN6CCN(C)CC6)cc5)cc4)c3)cn2)CC1` [Example 366, 2-amino-N-((1S,2S)-2-((4′-((4-methylpiperazin-1-yl)methyl)-[1,1′-biphenyl]-4-yl)methox)cyclopentyl)-5-(1-(1-methylpiperidin-4-yl)-1H-pyrazol-4-yl)nicotinamide], the GI50 is below 100 nM.

As to `CN1CCN(Cc2ccc(-c3ccc(CO[C@H]4CCC[C@@H]4NC(=O)c4cc(-c5ccc(N6CCN(C)CC6)cc5)cnc4N)cc3)cc2)CC1` [Example 367, 2-amino-N-((1S,2S)-2-((4′-((4-methylpiperazin-1-yl)methyl)-[1,1′-biphenyl]-4-yl)methoxy)cyclopentyl)-5-(4-(4-methylpiperazin-1-yl)phenyl)-nicotinamide], the concentration for 50% growth inhibition (GI50) was below 100 nM.

In the case of `CN1CCN(Cc2ccc(-c3ccc(CO[C@H]4CCC[C@@H]4NC(=O)c4cc(-c5ccc(CN6CCN(C)CC6)cc5)cnc4N)cc3)cc2)CC1` [Example 368, 2-amino-N-((1S,2S)-2-((4′-((4-methylpiperazin-1-yl)methyl)-[1,1′-biphenyl]-4-yl)methoxy)cyclopentyl)-5-(4-((4-methylpiperazin-1-yl)methyl)phenyl)nicotinamide], the GI50 is below 100 nM.

For the compound `CN1CCN(Cc2ccc(-c3ccc(CO[C@H]4CCC[C@@H]4NC(=O)c4cc(-c5ccc(CO)cc5)cnc4N)cc3)cc2)CC1` [Example 369, 2-amino-5-(4-(hydroxymethyl)phenyl)-N-((1S,2S)-2-((4′-((4-methylpiperazin-1-yl)methyl)-[1,1′-biphenyl]-4-yl)methoxy)cyclopentyl)nicotinamide], the concentration for 50% growth inhibition (GI50) is below 100 nM.

For the compound `Cc1cccc(-c2cnc(N)c(C(=O)N[C@H]3CCC[C@@H]3OCc3ccc(-c4ccc(CN5CCN(C)CC5)cc4)cc3)c2)c1` [Example 370, 2-amino-N-((1S,2S)-2-((4′-((4-methylpiperazin-1-yl)methyl)-[1,1′-biphenyl]-4-yl)methoxy)cyclopentyl)-5-(m-tolyl)nicotinamide], the GI50 is below 100 nM.

Take `CN1CCN(Cc2ccc(-c3ccc(CO[C@H]4CCC[C@@H]4NC(=O)c4cc(-c5ccccc5)cnc4N)cc3)cc2)CC1` [Example 371, 2-amino-N-((1S,2S)-2-((4′-((4-methylpiperazin-1-yl)methyl)-[1,1′-biphenyl]-4-yl)methoxy)cyclopentyl)-5-phenyl nicotinamide]: the GI50 was below 100 nM.

Consider `CN1CCN(Cc2ccc(-c3ccc(CO[C@H]4CCC[C@@H]4NC(=O)c4cc(-c5ccc(O)cc5)cnc4N)cc3)cc2)CC1` [Example 372, 2-amino-5-(4-hydroxyphenyl)-N-((1S,2S)-2-((4′-((4-methyl-piperazin-1-yl)methyl)-[1,1′-biphenyl]-4-yl)methoxy)cyclopentyl)nicotinamide], for which the GI50 is below 100 nM.

Take `CN1CCN(Cc2ccc(-c3ccc(CO[C@H]4CCC[C@@H]4NC(=O)c4cc(-c5cccnc5)cnc4N)cc3)cc2)CC1` [Example 375, 6-amino-N-((1S,2S)-2-((4′-((4-methylpiperazin-1-yl)methyl)-[1,1′-biphenyl]-4-yl)methoxy)cyclopentyl)-[3,3′-bipyridine]-5-carboxamide]: the 50% growth inhibitory concentration (GI50) is below 100 nM.

`COc1ccc(-c2cnc(N)c(C(=O)N[C@H]3CCC[C@@H]3OCc3ccc(-c4ccc(CN5CCN(C)CC5)cc4)cc3)c2)cc1` [Example 376, 2-amino-5-(4-methoxyphenyl)-N-((1S,2S)-2-((4′-((4-methyl-piperazin-1-yl)methyl)-[1,1′-biphenyl]-4-yl)methoxy)cyclopentyl)nicotinamide]: the concentration for 50% growth inhibition (GI50) was below 100 nM.

Consider `CN1CCN(Cc2ccc(-c3ccc(CO[C@H]4CCC[C@@H]4NC(=O)c4cc(-c5ccncc5)cnc4N)cc3)cc2)CC1` [Example 377, 6-amino-N-((1S,2S)-2-((4′-((4-methylpiperazin-1-yl)methyl)-[1,1′-biphenyl]-4-yl)methoxy)cyclopentyl)-[3,4′-bipyridine]-5-carboxamide], for which the GI50 is below 100 nM.

Turning to `CC1CCN(Cc2ccc(-c3cnc(N)c(C(=O)N[C@H]4CCC[C@@H]4OCc4ccc(-c5ccc(CN6CCN(C)CC6)cc5)cc4)c3)cc2)CC1` [Example 378, 2-amino-N-((1S,2S)-2-((4′-((4-methylpiperazin-1-yl)methyl)-[1,1′-biphenyl]-4-yl)methoxy)cyclopentyl)-5-(4-((4-methylpiperidin-1-yl)methyl)phenyl)-nicotinamide], the GI50 was below 100 nM.

Consider `CN1CCN(Cc2ccc(-c3ccc(CO[C@H]4CCC[C@@H]4NC(=O)c4cc(-c5ccc(CN6CCOCC6)cc5)cnc4N)cc3)cc2)CC1` [Example 379, 2-amino-N-((1S,2S)-2-((4′-((4-methylpiperazin-1-yl)methyl)-[1,1′-biphenyl]-4-yl)methoxy)cyclopentyl)-5-(4-(morpholinomethyl)phenyl)nicotinamide], for which the GI50 was below 100 nM.

Take `CN1CCN(Cc2ccc(-c3ccc(CO[C@H]4CCC[C@@H]4NC(=O)c4cc(-c5cnn(C6CCOCC6)c5)cnc4N)cc3)cc2)CC1` [Example 380, 2-amino-N-((1S,2S)-2-((4′-((4-methylpiperazin-1-yl)methyl)-[1,1′-biphenyl]-4-yl)methoxy)cyclopentyl)-5-(1-(tetrahydro-2H-pyran-4-yl)-1H-pyrazol-4-vi)nicotinamide]: the GI50 was below 100 nM.

Take `CN1CCN(Cc2ccc(-c3ccc(CO[C@H]4CCC[C@@H]4NC(=O)c4cc(-c5ccc(N6CCOCC6)cc5)cnc4N)cc3)cc2)CC1` [Example 381, 2-amino-N-((1S,2S)-2-((4′-((4-methylpiperazin-1-yl)methyl)-[1,1′-biphenyl]-4-yl)methoxy)cyclopentyl)-5-(4-morpholinophenyl)nicotinamide]: the 50% growth inhibitory concentration (GI50) was below 100 nM.

Turning to `COc1ccc(-c2cnc(N)c(C(=O)N[C@H]3CCC[C@@H]3OCc3ccc(-c4ccc(CN5CCN(C)CC5)cc4)cc3)c2)cc1OC` [Example 383, 2-amino-5-(3,4-dimethoxyphenyl)-N-((1S,2S)-2-((4′-((4-methyl-piperazin-1-yl)methyl)-[1,1′-biphenyl]-4-yl)methoxy)cyclopentyl)nicotinamide], the concentration for 50% growth inhibition (GI50) was below 100 nM.

Consider `CN1CCN(Cc2ccc(-c3ccc(CO[C@H]4CCC[C@@H]4NC(=O)c4cc(-c5cc(F)nc(F)c5)cnc4N)cc3)cc2)CC1` [Example 384], for which the GI50 was below 100 nM.

As to `CN1CCN(Cc2ccc(-c3ccc(CO[C@H]4CCC[C@@H]4NC(=O)c4cc(-c5ccc(F)nc5)cnc4N)cc3)cc2)CC1` [Example 386, 6-amino-6′-fluoro-N-((1S,2S)-2-((4′-((4-methylpiperazin-1-yl)methyl)-[1,1′-biphenyl]-4-yl)methoxy)cyclopentyl)-[3,3′-bipyridine]-5-carboxamide], the GI50 was below 100 nM.

Consider `CN1CCN(Cc2ccc(-c3ccc(CO[C@H]4CCC[C@@H]4NC(=O)c4cc(-c5cnn(C(F)(F)C(F)F)c5)cnc4N)cc3)cc2)CC1` [Example 387, 2-amino-N-((1S,2S)-2-((4′-((4-methylpiperazin-1-yl)methyl)-[1,1′-biphenyl]-4-yl)methoxy)cyclopentyl)-5-(1-(1,1,2,2-tetrafluoroethyl)-1H-pyrazol-4-yl)-nicotinamide], for which the GI50 was below 100 nM.

For the compound `CCc1cc(CO[C@H]2CNC[C@@H]2NC(=O)c2cc(-c3ccc(C(N)=O)cc3)cnc2N)ccc1C` [Example 391, 2-amino-5-(4-carbamoylphenyl)-N-((3S,4S)-4-((3-ethyl-4-methylbenzyl)oxy)pyrrolidin-3-yl)nicotinamide], the GI50 was above 1000 nM.
